Test [1] concerns the target T1, USP7 catalytic domain (USP7CD) (Homo sapiens, UniProt Q93009).
T1 construct: USP7 catalytic domain (USP7CD)
Kind of test: USP7 catalytic domain, Cy5-Ub-VME activity profiling. The test is classed as biochemical. The settings on record: at 12.5 μM. As for the experimental part: Panel A is an image showing that purified recombinant USP9x (7 nM) was treated with the stated compound at 50 μM for 19 min prior to addition of Cy5-Ub-VME for 5 min, then the mixture was resolved by S.D.S-PAGE and analyzed on a typhoon imager. Panel B is an image of an immunoblot showing purified recombinant USP9x (7 nM) and USP7CD (20 nM) were treated with the stated compound at the stated concentration for 19 min prior to addition of Cy5-Ub-VME for 5 min then the mixture was resolved by S.D.S-PAGE and analyzed on a Typhoon imager.
In addition, the amount of free inhibitor is unknown and thus the true kon could be much higher.

In another test the test system is G76VUb-GFP in COS1 cells. Kind of test: UbG76V-GFP proteasome assay in COS1 cells. The format is cell-based. As for the experimental part: COS1 cells at approx. 75% confluence in a 48 well plate were transiently transfected with a plasmid encoding G76VUb-GFP using Mirus 2020 reagent. After this time media with either compound in DMSO or 1% DMSO was added to the cells and the cells were incubated for 8 h. After this time, cells were trypsinized, diluted with 1% FBS in PBS (FACS buffer) then centrifuged at 700 g. After this time cells on ice were treated with FACS buffer containing propidium iodide (0.05 mg/mL). The GFP (indicating proteasome activity) and red fluorescence (dye exclusion showing acute toxicity) were subsequently measured by FACS.

Test [2] concerns DUBs other than USP9x, most notably UCHL5. Kind of test: HA-Ubiquitin-Vinylsulfone activity profiling, other DUBs. The format is biochemical. The settings on record: for inhibition of other DUBs other than USP9x: at 85 μM; for inhibition of other DUBs: below 25 μM. As for the experimental part: Lysate labeling assay on untransfected cells (1.5 mg/mL lysate lysed using a Dounce homogenizer, 10 strokes, in 75 mM potassium phosphate pH 7.6, 150 mM NaCl, 0.75 mM BME) was run with the stated concentration of inhibitor (or 1% DMSO control) for 30 min. After this time HA-Ub-VS (1.5 μM) was added and incubated for 15 min. After this time reaction mixture (15 μL) was removed and quenched in 2× (final concentration) reducing Laemeli buffer. The reaction mixtures were heated to 37° C. for 10 min prior to analysis by western blot for HA. […] EC50s calculated by this method were in agreement with those found in the HA-blot.

Test [3] has as its target T2, recombinant human 20S proteasome (Homo sapiens, UniProt P28074).
T2 construct: purchased Boston Biochem
Kind of test: 20S proteasome assay (Suc-Leu-Leu-Val-Tyr-AMC). The format is biochemical. As to conditions: 50 μM for the TU compounds (FIG. 6D). As for the experimental part: To recombinant human 20S proteasome ([…]) in 50 mM potassium phosphate pH 7.6, 50 mM NaCl, 1 mM DTT was added the compound or DMSO. This mixture was incubated at 25° C. for 30 min after which time substrate (Suc-Leu-Leu-Val-Tyr-AMC, 100 μM or 17 μM) was added and release of AMC was measured as a function of time using a plate reader for 30 min. The steady state rates were calculated and normalized to the DMSO rate. The concentration of inhibitor required to inhibit the enzyme by 50% was calculated using prism.

Another test relates to 3T3. Kind of test: Proliferation assay, 3T3. As to conditions: Mus musculus, NIH3T3, 72 h, read-out: EC50 growth inhibition 3T3.
The next test has as its system Bcr-Abl. Kind of test: Bcr-Abl immunoblot in BaF3/p210 cells. The format is cell-based, murine. As to conditions: 4 h. As for the experimental part: After this time cells were lysed and sonicated in S.D.S. Whole cell lysates were analyzed for Bcr-Abl and tubulin in triplicate. Panel B is a bar graph showing the quantitation of blots in Panel A. Panel C is an image of an immunoblot showing BaF3 cells were treated with various concentrations of TU50 in triplicate for 4 h, and then whole cell lysates were analyzed for Bcr-Abl and tubulin. Panel D is an image of an immunoblot similar to the experiment in Panel C but using TU46. Panel E is an image of an immunoblot similar to the experiment in Panel D but using TU49. Panel F is a plot showing the quantification of blots in Panel C, Panel D, and Panel E.
Proliferation inhibition/apoptosis assays and lysate activity profiling were all consistent with USP9x inhibition. Next, whether cell death in BaF3/p210 cells occurred through degradation of Bcr-Abl was validated. […] Encouragingly, the EC50 for Bcr-Abl degradation was 8±2 μM for TU50, which is within 2 fold of the proliferation inhibition EC50 obtained above (FIG. 7, Panel C).
(Immunoblotting shows a protein as a band on a membrane.)

Another test deals with MCL1. Kind of test: MCL1 immunoblot in BaF3 parent cells. The test is classed as cell-based. The settings on record: 15 and 30 μM, 4 h. The source says: Panel A is an image of a immunoblot showing knockdown of MCL-1 by TU46. […] Panel C is a bar graph showing the quantitation of the blots in Panel A and Panel B.
MCL1 is required to sustain growth of many transformed cells and is also regulated by USP9x. […] These findings help to explain why these compounds are toxic to Bcr-Abl independent cancer lines, especially BaF3.

For a further test, the system named is K562 cells. Kind of test: Annexin V-FITC/PI apoptosis assay, K562. The format is cell-based. The settings on record: 15 or 30 μM, 24 h. As for the experimental part: (each point is shown as mean+/−s.d. of 2 replicates). Panel A is a bar graph showing the data for HeLa cells (30 μM); Panel B is a bar graph showing the data for K562 (30 μM); Panel C is a bar graph showing the data for K562 (15 μM).
Since K562 cells are dependent upon Bcr-Abl for survival, it was predicted that these cells would also be susceptible to TU compounds. However, K562 cells gave a very weak signal in the Alamar Blue® assay. In lieu of the Alamar Blue assay, an apoptosis assay was used to show susceptibility. This assay uses fluorescein-modified Annexin V to detect phosphatidyl serine (PS) on the cell surface. See Vermes et al., J. Immon. Meth. 184, 39-51 (1995). PS is typically expressed on the inner leaflet of the cell membrane. However in the early stages of apoptosis, PS translocates to the outer leaflet and can be bound by Annexin V. Thus, during apoptosis cells will become greener in the presence of Annexin V-Fluorescine.

For a further test, the system named is B16-F10. Kind of test: Proliferation assay, B16-F10. The settings on record: Mus musculus, B16-F10, 72 h, read-out: EC50 growth inhibition B16-F10.
The next test relates to BaF3/p210 cells. Kind of test: Proliferation assay (Alamar Blue), BaF3/p210. The test is classed as cell-based, murine. As to conditions: for EC50: Mus musculus, BaF3, fresh media with compound added after 24 h, 24 h further growth, read-out: EC50 (viable cells). The source says:
This cell line consists of engineered murine leukemia cells that ectopically express Bcr-Abl. Parent BaF3 cells require exogenous interleukin 3 (IL3) because IL3 stimulates expression of MCL1, which is required for survival. However, BaF3/p210 cells require no exogenous interleukins but need Bcr-Abl for survival.
(Alamar Blue is a resazurin reagent that responds to reducing activity.)

[4] abbreviates: whole cell lysates sonicated, read-out: EC50 for Bcr-Abl degradation/knockdown.

Like-named read-outs stand apart in the source and are kept apart here.

From US10017463B2, “Inhibitors of deubiquitinating proteases” (Brandeis University, priority 2014, dated 2018) come the findings set out here.

T1 sequence (Q93009 214-521 limits assumed, species assumed): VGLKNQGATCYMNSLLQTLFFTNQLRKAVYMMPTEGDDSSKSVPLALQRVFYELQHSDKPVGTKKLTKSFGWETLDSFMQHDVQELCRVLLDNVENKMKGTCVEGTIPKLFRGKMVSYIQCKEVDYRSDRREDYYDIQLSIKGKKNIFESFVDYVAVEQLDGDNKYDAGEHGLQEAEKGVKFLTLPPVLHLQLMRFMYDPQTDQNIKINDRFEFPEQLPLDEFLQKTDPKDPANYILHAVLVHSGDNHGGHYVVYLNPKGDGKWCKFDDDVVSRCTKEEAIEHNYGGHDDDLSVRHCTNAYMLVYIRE
Procedure for 3T3: (§1) Proliferation assays for adherent cells were conducted by plating cells at 5%-10% confluence in 96 well plates together with compound or 0.1% DMSO. Cells were allowed to grow for 48 h and then Alamar Blue® was added and number of cells was measured by fluorescence on a microplate reader.
Procedure for B16-F10: as §1

Take `CC(C)(C)OC(=O)NCCc1ccc(N=C=S)cc1` [TU46]: the “inhibition of USP7CD” value in [1] is listed as “little inhibition”. Also, in the test on G76VUb-GFP in COS1 cells (COS1, 8 h), the “inhibition of the proteasome in G76VUb-GFP assay” value (from here on “inhibition of the proteasome”) is reported as “did not inhibit”. Also, the GFP signal result in the test with G76VUb-GFP in COS1 cells (COS1, at 50 μM) is recorded as “slight increase in GFP signal”. Moreover, the “inhibition of other DUBs other than USP9x” value in test [2] is listed as “weak inhibition”. The “inhibition of other DUBs” value in [2] was “little inhibition”. For the same molecule, the “inhibition of pure 20S proteasome” value in [3] was “did not inhibit”. Moreover, the EC50 with 3T3 was > 110 µM; with Bcr-Abl (unsonicated, read-out: EC50 for Bcr-Abl knockdown), 15 ± 7 µM; with Bcr-Abl (setting [4]), 9 ± 3 µM; with B16-F10 it was 70 ± 20 µM; in the test on BaF3/p210 cells, 11 µM. Besides, the “knockdown of MCL1” value in the test with MCL1 is on record as “very effective”. Also, the “apoptosis and necrosis in K562” value in the test on K562 cells is “large increase in both apoptosis and necrosis”. Further, the “growth inhibition of BaF3/p210 cells” value in the test with BaF3/p210 cells is reported as “good growth inhibition”. For the same molecule, in the test on BaF3/p210 cells, the “selectivity for BaF3/p210 over NIH3T3 cells” value is reported as “over a ten-fold selectivity”. In the test on BaF3/p210 cells, the “selectivity for BaF3/p210 over other cancer lines” value is on record as “at least a five-fold selectivity”.

As for `O=C(NCc1ccc(N=C=S)cc1)OCc1ccccc1` [TU49], the “inhibition of USP7CD” value in test [1] is reported as “little inhibition”. Also, in the test on G76VUb-GFP in COS1 cells (COS1, 8 h), the GFP signal result was “decreased the GFP signal” and the “inhibition of the proteasome” value is listed as “did not inhibit”. Besides, in test [2], the “inhibition of other DUBs other than USP9x” value is “weak inhibition” and the “inhibition of other DUBs” value is “little inhibition”. In test [3], the “inhibition of pure 20S proteasome” value is “did not inhibit”. Besides, the EC50 with 3T3 was > 110 µM. For the same molecule, in the test on Bcr-Abl (setting [4]), the EC50 stood at 9 ± 5 µM. In addition, the “knockdown of MCL1” value with MCL1 was “not as efficient”. Further, the “apoptosis and necrosis in K562” value in the test on K562 cells is “large increase in both apoptosis and necrosis”. Further, the EC50 in the test with B16-F10 is ~30 µM. Moreover, the “growth inhibition of BaF3/p210 cells” value with BaF3/p210 cells was “good growth inhibition”.

For the molecule `CC(C)(C)OC(=O)NCc1cccc(N=C=S)c1` [TU50], the “inhibition of USP7CD” value in test [1] is on record as “little inhibition”. Also, in the test on G76VUb-GFP in COS1 cells (COS1, 8 h), the GFP signal result was “decreased the GFP signal” and the “inhibition of the proteasome” value is on record as “did not inhibit”. Also, in test [2], the “inhibition of other DUBs other than USP9x” value is “weak inhibition” and the “inhibition of other DUBs” value is on record as “little inhibition”. The “inhibition of pure 20S proteasome” value in test [3] is given as “did not inhibit”. Besides, the EC50 with 3T3 came out at 80 ± 10 µM. Besides, in the test with Bcr-Abl (setting [4]), the EC50 stood at 8 ± 2 µM. For the same molecule, in the test on MCL1, the “knockdown of MCL1” value is listed as “very effective”. The “apoptosis and necrosis in K562” value in the test with K562 cells was “large increase in both apoptosis and necrosis”. Moreover, the EC50 in the test on B16-F10 turned out to be 85 ± 10 µM. Also, in the test on BaF3/p210 cells, the “growth inhibition of BaF3/p210 cells” value is listed as “good growth inhibition”, the “selectivity for BaF3/p210 over NIH3T3 cells” value is on record as “over a ten-fold selectivity”, the “selectivity for BaF3/p210 over other cancer lines” value was “at least a five-fold selectivity” and the EC50 turned out to be 16 µM.
